Laboratory results as given in patent US20100055066A1, “Agent for prophylactic and/or therapeutic treatment of diabetes” (priority 2004, published 2010).

Assays:
Format in all cases: in vivo
cyp7α = assay: Liver cyp7α gene expression by quantitative PCR after FXR agonist (Example 2); settings: KKAy mice, 10 mg/kg orally for 4 days, liver on 5th day, FIG. 6-1
Protocol: (§1) An FXR agonist, GW-4064 (J. Med. Chem., vol. 43(16), pp. 2971-2974, 2000), was orally administered in a dosage of 10 mg/kg for 4 days. On the 5th day, mice were dissected to isolate the livers.

SHP = assay: Liver SHP gene expression by quantitative PCR after FXR agonist (Example 2); settings: KKAy mice, 10 mg/kg orally for 4 days, liver on 5th day, FIG. 6-2
Protocol: as §1

PEPCK = assay: Liver PEPCK gene expression by quantitative PCR after FXR agonist (Example 2); settings: KKAy mice, 10 mg/kg orally for 4 days, liver on 5th day, FIG. 7
Protocol: as §1

expression level of the gene for cyp7α in the liver compared with control group (cyp7α): decreased
Compound: CC(C)c1onc(-c2c(Cl)cccc2Cl)c1COc1ccc(/C=C/c2cccc(C(=O)O)c2)c(Cl)c1 [GW-4064]
expression level of the gene for SHP in the liver compared with control group (SHP): increased
expression level of the gene for PEPCK in the liver compared with control group (PEPCK): increased
